Data from article PMC4432651, “Dynamic interplay between catalytic and lectin domains of GalNAc-transferases modulates protein O-glycosylation” (Nature Communications, 2015).
Where a SMILES comes first, the peptide text is derived from it. The star is where a group is joined. αGalNAc = CC(=O)N[C@@H]1[C@@H](O)[C@@H](O)[C@@H](CO)O[C@@H]1*

Assays:
GalNAc-T2 [1] = molecular target: T1, GalNAc-T2 (Homo sapiens, UniProt Q10471); experiment: X-ray crystal structures of GalNAc-T2 complexes; assay type: binding; for Rg of crystal complex: values in Å
T1 construct: made in house
T1 sequence (Q10471 75-571 limits assumed): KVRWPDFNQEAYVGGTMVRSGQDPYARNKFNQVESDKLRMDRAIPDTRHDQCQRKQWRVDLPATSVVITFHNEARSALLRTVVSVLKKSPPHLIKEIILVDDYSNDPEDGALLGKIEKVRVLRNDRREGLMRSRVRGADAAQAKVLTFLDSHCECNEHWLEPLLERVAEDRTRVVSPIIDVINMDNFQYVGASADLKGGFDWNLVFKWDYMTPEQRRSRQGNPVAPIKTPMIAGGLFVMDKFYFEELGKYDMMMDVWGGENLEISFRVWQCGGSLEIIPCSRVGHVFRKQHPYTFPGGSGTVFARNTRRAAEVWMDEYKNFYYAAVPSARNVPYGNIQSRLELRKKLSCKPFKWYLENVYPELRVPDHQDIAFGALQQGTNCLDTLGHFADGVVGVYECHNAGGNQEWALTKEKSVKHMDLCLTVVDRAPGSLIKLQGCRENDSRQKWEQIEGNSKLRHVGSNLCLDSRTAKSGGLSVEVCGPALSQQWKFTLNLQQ
Method: In all cases, crystals were grown by hanging drop vapour diffusion at 18 °C. […] The protein solution consisting of 3.5 mg ml^−1 of GalNAcT-2, 5 mM UDP, 5 mM MnCl2 and 6 mM MUC5AC-13 in the same buffer described above was mixed with the precipitant solution containing 1.6 M ammonium sulfate, 100 mM sodium chloride and 100 mM HEPES (pH 7). The crystals were cryoprotected in saturated lithium sulfate and frozen in a nitrogen gas stream cooled to 100 K.
All data were processed and scaled using the XDS package[34] and CCP4 software. The crystal structures were solved by molecular replacement with Phaser[35] and using the PDB entry 4D0T as the template. Initial phases were further improved by cycles of manual model building in Coot[36] and refinement with REFMAC5 (ref. [37]). The AUs of the tetragonal crystals contain 1 molecule of GalNAc-T2 (Fig. 1). Coordinates and structure factors have been deposited in the Worldwide Protein Data Bank (wwPDB, and see Table 1 for the pdb codes).

GalNAc-T2 [2] = molecular target: T1, GalNAc-T2; conditions: cited from earlier work
Excerpt: Among other conclusions it was reported that the glycosylation ...

GalNAc-T2 [3] = molecular target: T1, GalNAc-T2; experiment: SAXS with Ensemble Optimization Method: GalNAc-T2 conformations/oligomers with ligands; conditions: for Rg from p(r) (GNOM) / Dmax / Rg (Guinier): GalNAc-T2 5 mg/ml, 25 mM TRIS pH 7.5, 10 mM MnCl2, 10 °C; for Dmax: maximum intramolecular distance, GNOM; for Dmax: values in Å; for Rg (Guinier): values in Å; for Rg from p(r) (GNOM): values in Å
Method: SAXS measurements were performed at the European Molecular Biology Laboratory on the storage ring PETRA-III (DESY-Hamburg) on the P12 beamline equipped with a robotic sample changer and a PILATUS-2M. The analysis of the SAXS data was performed by using the EOM[31]. Additional details are in Supplementary Methods. […]
Small-angle X-ray scattering (SAXS) and data analysis
All experiments were performed in a buffer consisting of 25 mM TRIS pH 7.5, 10 mM MnCl2. The first set of experiments contained three different protein concentrations: 10 mg/ml (180 µM), 5 mg/ml (90 µM), 2.5 mg/ml (45 µM) and 1 […]
mg/ml (18 µM). The protein was measured alone and in the presence of ten times molar excess of UDP, UDP-GalNAc, UDP-EA2 peptide, MUC5AC-13, UDP-MUC5AC-13, MUC5AC, and UDP-MUC5AC. The second set of experiments was carried out with the protein concentration fixed at 5 mg/ml, and increasing concentrations of UDP (450 µM, 900 µM, 1.8 mM, 4.5 mM and 9 mM). The concentration of MUC5AC-13 was also changed as follows: 1 mM, 5 mM and 7.5 […]
Synchrotron SAXS measurements were performed at the European Molecular
Biology Laboratory (EMBL) on the storage ring PETRA-III (DESY-Hamburg) on the P12 beamline equipped with a robotic sample changer and a PILATUS-2M. The sample-detector distance was 3.1 m. The scattering intensity, I(s), was recorded at 10 °C in a momentum transfer range of 0.007<s<0.444 Å -1, where s = (4πsinθ )/λ , 2θ is the scattering angle, and λ = 1.24 Å is the X-ray wavelength. Twenty consecutive 0.05 second measurements were performed for protein samples and buffers to monitor for radiation damage that were subsequently averaged (no systematic radiation effects were observed). Buffer scattering profiles were subtracted from the sample ones using standard procedures 8. The values of the forward scattering, I(0), and radii of gyration, Rg, were calculated from the experimental SAXS patterns using Guinier’s approximation (Supplementary Fig. 4 and 5), I(s) = I(0)exp(-s2Rg2/3), which is valid in the range sRg < 1.3.
Structural analysis of the SAXS data was performed using the Ensemble Optimization Method (EOM)9. A pool of 10,000 monomeric structures of GalNac-T2 was constructed with the program RanCh9 by connecting three-dimensional structures of the catalytic and the lectin domains, extracted from the crystallographic structure 2FFU, with a flexible linker of 12 residues with random coil conformations. To […]
properly describe the data, these monomeric ensembles were enriched with 100 equivalent curves corresponding to one dimeric arrangement. As we tested three dimers, we built three different ensembles with the same 10,000 monomeric conformations and 100 copies of each one of the dimers. The three different dimers used for SAXS are shown in Supplementary Fig. 3c and correspond to three different crystal structures obtained under different conditions.
The scattering profiles of all members of the pool were computed with the program CRYSOL using standard parameters10. The pool of structures/profiles was submitted to the genetic algorithm (GA) with the aim to select a subensemble of 50 structures/curves with the capacity to collectively describe the experimental SAXS […]
was repeated 200 times starting from different randomly selected subensembles, and the resulting solutions were analysed together. The same pool was used to describe all the measured data. Results were quantitatively analysed by displaying the Rg distributions of the selected ensembles and the relative population of monomeric and dimeric species.
Three different dimeric arrangements were introduced individually in the pool. In all three cases the dimers display similar contacts between the lectin domains and the lectin domain of one monomer with the catalytic domain of a second monomer (Supplementary Fig. 3c). We can distinguish the crystallographic dimers by the buried area parameter inferred from the PISA server. The dimers present in the crystal structure of GalNAc-T2-UDP complex (PDB entry 2FFV) are the most compact ones […]

[4] = ligand molar ratio GalNAc-T2:ligand 1:10
[5] = ligand molar ratio GalNAc-T2:ligand 1:20

Structure (SMILES)	Rg of crystal complex (GalNAc-T2 [1]; GalNAc-T2-UDP-MUC5AC-13 complex) [Å]	form of GalNAc-T2 bound in crystal (GalNAc-T2 [1]; co-crystallization with UDP and Mn+2, flexible loop conformation)	optimal glycosylation site (GalNAc-T2 [2]; prior glycosylated site Thr13, ref 1 (supplement))	glycosylation of further sites Ser5 and Thr9 (GalNAc-T2 [2]; ref 1 (supplement))	effect on GalNAc-T2 dimers (in words) (GalNAc-T2 [3]; GalNAc-T2 fixed at 5 mg ml−1, increasing concentrations of peptide)	Rg from p(r) (GNOM) (GalNAc-T2 [3]; ligand molar ratio 1:10) [Å]	Dmax (GalNAc-T2 [3]; ligand molar ratio 1:10) [Å]	Rg from p(r) (GNOM) (GalNAc-T2 [3]; ligand molar ratio 1:20) [Å]	Dmax (GalNAc-T2 [3]; ligand molar ratio 1:20) [Å]	Rg (Guinier) (GalNAc-T2 [3]; [4]) [Å]	Rg (Guinier) (GalNAc-T2 [3]; [5]) [Å]	Rg (Guinier) (GalNAc-T2 [3]; peptide + UDP (1:10)) [Å]	Rg from p(r) (GNOM) (GalNAc-T2 [3]; peptide + UDP (1:10)) [Å]	Dmax (GalNAc-T2 [3]; peptide + UDP (1:10)) [Å]	Rg from p(r) (GNOM) (GalNAc-T2 [3]; ligand molar ratio 1:5) [Å]	Dmax (GalNAc-T2 [3]; ligand molar ratio 1:5) [Å]	Rg from p(r) (GNOM) (GalNAc-T2 [3]; ligand molar ratio 1:50) [Å]	Dmax (GalNAc-T2 [3]; ligand molar ratio 1:50) [Å]	Rg (Guinier) (GalNAc-T2 [3]; ligand molar ratio GalNAc-T2:ligand 1:5) [Å]	Rg (Guinier) (GalNAc-T2 [3]; ligand molar ratio GalNAc-T2:ligand 1:50) [Å]
CC(=O)NCC(=O)N[C@H](C(=O)N[C@H](C(=O)N1CCC[C@H]1C(=O)N[C@@H](CO)C(=O)N1CCC[C@H]1C(=O)N[C@H](C(=O)N1CCC[C@H]1C(=O)N[C@H](C(=O)N[C@H](C(=O)N[C@@H](CO)C(=O)N[C@H](C(=O)N[C@H](C(=O)N[C@@H](CO)C(=O)N[C@@H](C)C(N)=O)[C@@H](C)O[C@H]1O[C@H](CO)[C@H](O)[C@H](O)[C@H]1NC(C)=O)[C@@H](C)O)[C@@H](C)O)[C@@H](C)O)C(C)C)[C@@H](C)O)[C@@H](C)O [MUC5AC-13] (Ac-GTTPSPVPTTSTT(αGalNAc)SA-NH2; N-terminus assumed)	26.41	bound to an active form of GalNAc-T2	optimally 10 residues N-terminal (Thr3)	not in an efficient manner	dimers almost disappear from solution	30.6	112	29.2	102	30.2±0.2	29.1±0.1	30.7±0.4	31.7	112	–	–	–	–	–	–
O=c1ccn([C@@H]2O[C@H](COP(=O)(O)OP(=O)(O)O)[C@@H](O)[C@H]2O)c(=O)[nH]1 [UDP, uridine diphosphate, reference compound]	–	–	–	–	–	35.0	123	34.5	122	34.4±0.3	34.0±0.2	–	–	–	34.3	121	36.0	129	32.7±0.3	36.0±0.3
